Data on three compounds can be found in patent publication US20160185745A1, “ANALOGS OF VINAXANTHONE AND XANTHOFULVIN, METHODS OF SYNTHESIS, AND METHODS OF TREATMENTS THEREOF” (BOARD OF REGENTS, THE UNIVERSITY OF TEXAS SYSTEM, priority 2013, published 2016).

The test system of data set [1] is GFP-labeled cholinergic neurons. As to the kind of experiment: outgrowth of GFP-labeled cholinergic neurons in vivo in C. elegans. Conditions: for outgrowth activity of GFP-labeled cholinergic neurons: control 0.2% DMSO in M9 buffer, compared with dibutyryl cAMP. How it is done: (§1) Control: 0.2% DMSO in M9 buffer. […] Additionally, several analogs were prepared and their biological activity was measured.

In another data set the target is T1, SUCNR1 (Homo sapiens, UniProt Q9BXA5).
T1 sequence (Q9BXA5 1-334): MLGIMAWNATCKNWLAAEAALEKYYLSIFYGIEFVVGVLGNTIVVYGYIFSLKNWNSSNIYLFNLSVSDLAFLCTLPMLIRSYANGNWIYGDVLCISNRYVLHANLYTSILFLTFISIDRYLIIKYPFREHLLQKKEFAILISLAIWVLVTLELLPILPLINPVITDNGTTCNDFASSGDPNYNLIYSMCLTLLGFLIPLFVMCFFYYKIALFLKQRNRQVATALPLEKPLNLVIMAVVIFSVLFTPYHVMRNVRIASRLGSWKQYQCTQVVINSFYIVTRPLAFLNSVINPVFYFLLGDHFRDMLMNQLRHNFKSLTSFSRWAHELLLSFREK
The experiment in a line: modulation of SUCNR1 when administered with sodium succinate. It counts as cell-based. Conditions: compared to sodium succinate alone. On the procedure: The values are compared to 100% activation by sodium succinate.
as §1

The next data set concerns the target T2, semaphorin 3A (Sema3A) (Homo sapiens, UniProt Q14563).
T2 sequence (Q14563 21-771): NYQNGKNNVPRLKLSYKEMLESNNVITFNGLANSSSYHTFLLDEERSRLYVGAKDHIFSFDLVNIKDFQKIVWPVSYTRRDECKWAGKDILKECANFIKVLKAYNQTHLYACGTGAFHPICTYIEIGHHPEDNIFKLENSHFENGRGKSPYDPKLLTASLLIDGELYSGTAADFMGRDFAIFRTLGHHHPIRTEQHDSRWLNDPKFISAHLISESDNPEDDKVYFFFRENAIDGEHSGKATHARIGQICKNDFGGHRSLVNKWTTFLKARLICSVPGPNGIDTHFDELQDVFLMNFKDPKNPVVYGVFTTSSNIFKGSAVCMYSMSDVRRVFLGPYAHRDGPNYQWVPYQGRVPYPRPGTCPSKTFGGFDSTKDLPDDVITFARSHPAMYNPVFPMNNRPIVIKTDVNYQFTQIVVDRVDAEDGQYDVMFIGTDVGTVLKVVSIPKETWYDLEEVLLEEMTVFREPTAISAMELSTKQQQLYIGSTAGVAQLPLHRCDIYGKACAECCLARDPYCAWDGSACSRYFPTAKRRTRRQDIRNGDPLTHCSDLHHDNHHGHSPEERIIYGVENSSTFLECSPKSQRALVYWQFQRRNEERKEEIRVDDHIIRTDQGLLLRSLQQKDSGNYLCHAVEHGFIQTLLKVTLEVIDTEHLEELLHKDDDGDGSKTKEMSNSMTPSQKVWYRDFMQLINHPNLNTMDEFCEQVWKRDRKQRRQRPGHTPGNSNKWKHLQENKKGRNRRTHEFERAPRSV
Conditions: read-out: Sema3A inhibitory activity IC50 (converted); cited from earlier work.

The conditions of data set [2]: at concentrations >1000 times the effective dose; cited from earlier work.

For `CCCC(=O)Nc1ncnc2c1ncn2[C@@H]1O[C@@H]2COP(=O)(O)O[C@H]2[C@H]1OC(=O)CCC` [dibutyryl cAMP, reference compound], the “promotes branching in % of animals” value in data set [1] (at 2 mM) was determined as 36%.

For `CC(=O)c1cc2c(=O)c3c(C(=O)O)c(O)c(O)cc3oc2c(C(C)=O)c1-c1coc2cc(O)c(O)c(C(=O)O)c2c1=O` [vinaxanthone, 5,7-diacetyl-6-(5-carboxy-6,7-dihydroxy-4-oxo-4H-chromen-3-yl)-2,3-dihydroxy-9-oxo-9H-xanthene-1-carboxylic acid], the “outgrowth activity of GFP-labeled cholinergic neurons” value in data set [1] was “comparable to dibutyryl cAMP”. Also, at SUCNR1, the Dose ratio is on record as 0.33 and the efficacy value amounted to 230%. The IC50 on semaphorin 3A (Sema3A) was 173 nM. In addition, in data set [2], the cytotoxicity effects entry is given as “no observable cytotoxicity effects”.

On to `CC(=O)c1c(C)c(/C(O)=C2\COc3cc(O)c(O)c(C(=O)O)c3C2=O)cc2c(=O)c3c(C(=O)O)c(O)c(O)cc3oc12` [xanthofulvin], for which the “outgrowth activity of GFP-labeled cholinergic neurons” value in data set [1] is “comparable to dibutyryl cAMP”. At SUCNR1, the Dose ratio is recorded as 0.32 and the efficacy value was 222%.

The term IC50 denotes the concentration at which inhibition is half-maximal.
